# Assay results: patent US8835644B2, “Broad spectrum benzothiophene-nitrothiazolide and other antimicrobials” (University of Virginia Patent Foundation, priority 2009, dated 2014)
# Structures can show the parent of a compound that is named as a salt. Where two headings read alike, the source gives them in different places.
# What was measured:
# H. pylori = experiment: MIC testing by broth dilution, H. pylori; type: cell-based, Helicobacter pylori
# Method in brief: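 Helicobacter pylori was tested using a standard broth dilution method in 96 well microplates, each well holding a standard dilution of the organism in 100 microliters of Brain Heart Infusion. Compounds started at 32 μg/ml in 200 microliters in the first well and were serially diluted from 32 to 0.06. Wells were read visually at 24 h, and the MIC was the well with no growth.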
# E. coli biofilm = E. coli biofilm assay (activity tables); type: cell-based, Escherichia coli
# Method in brief: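 E. coli strain 042 inoculated 1:100 with NTZ-containing medium and grown statically at 37 °C for 24 h. Growth measured by turbidity or plate counts (cfu/ml); biofilm stained with 0.5% crystal violet and read at 570 nm; triplicate, mean ± SD.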
# S. epidermidis = experiment: MIC testing by broth dilution, S. epidermidis plank; type: cell-based, Staphylococcus epidermidis
# Method in brief: (§1)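 Media: LB (E. coli), Trypticase Soy (S. epidermidis), BHI (C. jejuni); plank cells. C. difficile on Wilkins Chalgrin agar, anaerobic Kirby-Bauer disks, zone vs NTZ zone ratio.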
# MRSA = experiment: MIC testing by broth dilution, MRSA; type: cell-based, Staphylococcus aureus
# Method in brief: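 Values are broth-dilution MICs, defined as the well showing no growth on visual reading after 24 h; the tested range was 32 to 0.06 μg/ml, in organism-specific media (LB, Trypticase Soy, Brain Heart Infusion). The C. difficile entries come instead from anaerobic Kirby-Bauer disk zones, normalised to NTZ.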
# C. jejuni = experiment: MIC testing by broth dilution, C. jejuni; type: cell-based, Campylobacter jejuni
# Method in brief: as §1
# [1] = test system: PFOR (pyruvate ferredoxin oxidoreductase); experiment: Direct PFOR enzyme assay; type: biochemical
# C. difficile [2] = experiment: MIC by agar dilution, C. difficile; type: cell-based, Clostridium difficile
# Experimental: A standard broth dilution protocol was used in 96 well microplates containing a standard dilution of the microorganism to be tested in 100 microliters of the appropriate medium. Appropriate medium: E. coli, LB medium; Staphylococcus strains, Trypticase Soy; and for H. pylori and C. jejuni, Brain Heart Infusion. The compounds to be tested were set at 32 μg/ml in 200 microliters in well one and then serially diluted to provide a range from 32 to 0.06. The wells were scored visually at 24 h. The well where there was no growth was recorded as the MIC. […]
# Representative compounds of the invention were tested in a series of assays against a series of organisms as described above. […] The organisms tested include, C. difficile, H. pylori, C. jejuni, MRSA, S. epidermidis, and E. coli. S. epidermidis and E. coli were tested in the plank and biofilm assay. A disk diffusion assay was also used for C. difficile. Direct PFOR enzyme assays were also performed. All analogues and derivatives were not tested on every organism in every type of assay (the “-” in each table means that it was not tested).
# S. epidermidis biofilm = S. epidermidis biofilm assay (activity tables); type: cell-based, Staphylococcus epidermidis; conditions: for MIC S. epidermidis Biofilm: Thiophene analogues table
# Method in brief: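 Overnight TSB cultures diluted to OD600 0.01 and grown static with compound (triplicate) at 37° C for 16 h; turbidity recorded for growth. Biofilm: washed wells ethanol-fixed, stained with 0.5% crystal violet, A570 read before and after 95% ethanol extraction; mean ± SD.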
# E. coli = experiment: MIC testing by broth dilution, E. coli plank; type: cell-based, Escherichia coli
# Method in brief: as §1
# C. difficile [3] = experiment: Disk diffusion (Kirby Bower), C. difficile; type: cell-based, Clostridium difficile; conditions: for Disk Diff (%) C. difficile: Nitazoxanide = 100, Thiophene analogues table; for Disk Diffusion (%) C. difficile: zone of inhibited growth as relative ratio to the zone for NTZ
# Method in brief: as §1
# [4] = test system: S. aureus and S. epidermidis strains; experiment: MIC by microdilution in TSB, staphylococcal strains; type: cell-based, Staphylococcus epidermidis; conditions: Staphylococcus aureus, MRSA
# Experimental: Minimal inhibitory concentration testing of NTZ was done in sterile round bottom 96 well microtiter polystyrene plates (Corning Inc., Corning, N.Y.) by microdilution. Tizoxanide TIZ (deacetylated form of NTZ), denitro-NTZ (TIZ without 5-nitro group) and amoxanide AMIX (TIZ-ethylamine) were also tested. Bacteria were grown overnight and suspended in fresh TSB to an OD600 of 0.01 and 100 μl were dispensed into wells with the first well containing 200 μA NTZ and other antibiotics (DMSO control) were added to well one and serially diluted from 32 μg/ml. All compounds were tested in triplicate and plates were read visually or with a plate reader (Molecular Devices) at 8, 12 and at 24 h. MIC was determined as the first well in which no visible bacterial growth was noted relative to controls. Drug effects on aerobic growth were determined in 125 ml flasks containing 25 ml of TSB medium and following inoculation (detailed above), flasks were on a gyrorotary shaker (200 rpm) at 37° C. Final concentrations of NTZ were 0, 10 and 25 μg/ml and samples were removed at hourly intervals and absorbance determined at 600 nm.
# Solubility in water = type: physicochemical
# [5] = test system: S. epidermidis strain 9142; experiment: Biofilm determination, crystal violet, S. epidermidis; type: cell-based, Staphylococcus epidermidis
# Experimental: Staphylococcal strains were cultured overnight in TSB at 37° C. with shaking, diluted in fresh medium to an OD600 of 0.01 and 200 W was dispensed into sterile flat bottom polystyrene 96 well microtiter plates (Costar 3596, Corning Inc.). […] Each compound and dilution was tested in triplicate. The plates were incubated overnight at 37° C. in a humidified incubator, without shaking and both growth and biofilm accumulation were determined at 16 h.
# Following recording of turbidities, the culture medium was aspirated and the wells were washed three times with distilled water, blotted on paper towels, and fixed with 75% ethanol for 10 minutes.
# To visualize biofilm material, 0.5% crystal violet was added to each well and after 5 minutes was removed and the wells washed three times with distilled water. Plates were read using a microplate reader at a wavelength of 570 nm. The dye was then extracted by adding 200 W of 95% ethanol, and the absorbance was read again at 570 nm. All assays were performed in triplicate and the mean and standard deviation determined. Generally, the ethanol-solubilized crystal violet was more reliable and these determinations are reported throughout.
# E. histolytica [6] = experiment: Amoebic dysentery mouse infection model; type: in vivo; conditions: drugs given orally or parenterally in advance
# E. histolytica [7] = experiment: E. histolytica cell counts
# [8] = test system: S. epidermidis strain 9142; experiment: Effect of zinc on the action of NTZ (biofilm and MIC); type: cell-based, Staphylococcus epidermidis; conditions: zinc 20 μM, read at 8 h
# Experimental: […] As a control, ZnCl2 was added to untreated bacteria. Additional controls included testing of 10 μM CaCl2 and MgCl2 in the same format. The inhibitory effect of EDTA on biofilm production and its reversibility by Zn^2+ was also assessed as described for NTZ.
# [9] = broth dilution, Brain Heart Infusion, 24 h, read-out: MIC (μM) H. pylori
# [10] = biofilm, read-out: MIC (μM) E. coli Biofilm
# [11] = broth dilution, Trypticase Soy, 24 h, read-out: MIC (μM) S. epidermidis Plank
# [12] = broth dilution, Trypticase Soy, 24 h, read-out: MIC (μM) MRSA
# [13] = broth dilution, Brain Heart Infusion, 24 h, read-out: MIC (μM) C. jejuni
# [14] = agar dilution, anaerobic, Wilkins Chalgrin agar, read-out: MIC (μM) C. difficile
# [15] = broth dilution, LB medium, 24 h, read-out: MIC (μM) E. coli Plank
# [16] = Thiophene analogues table, read-out: MIC H. pylori
# [17] = biofilm, Thiophene analogues table, read-out: MIC E. coli Biofilm
# [18] = planktonic, Thiophene analogues table, read-out: MIC S. epidermidis Plank
# [19] = Thiophene analogues table, read-out: MIC MRSA
# [20] = Thiophene analogues table, read-out: MIC C. jejuni
# [21] = Thiophene analogues table, read-out: MIC C. difficile
# [22] = planktonic, Thiophene analogues table, read-out: MIC E. coli Plank
# [23] = Helicobacter pylori, 24 h, read-out: MIC (μM) H. pylori
# [24] = Escherichia coli, read-out: MIC (μM) E. coli Biofilm
# [25] = Staphylococcus aureus, MRSA, 24 h, read-out: MIC (μM) MRSA
# [26] = Campylobacter jejuni, 24 h, read-out: MIC (μM) C. jejuni
# [27] = Clostridioides difficile, read-out: MIC (μM) C. difficile
# [28] = Escherichia coli, 24 h, read-out: MIC (μM) E. coli Plank
smiles,measurement,setting,value
COc1cc([N+](=O)[O-])ccc1C(=O)Nc1ncc([N+](=O)[O-])s1 [VPC161093],MIC,H. pylori; [9],0.6 µM
same,MIC,E. coli biofilm; [10],98.7 µM
same,MIC,S. epidermidis; [11],12.3 µM
same,MIC,MRSA; [12],98.7 µM
same,MIC,C. jejuni; [13],9.3 µM
same,PFOR inhibition relative to nitazoxanide (=100),[1],115%
same,MIC,C. difficile [2]; [14],98.7 µM
same,MIC (μM) S. epidermidis Biofilm,S. epidermidis biofilm,12.3 µM
same,MIC,E. coli; [15],98.7 µM
O=C(Nc1ncc([N+](=O)[O-])s1)c1sc2cc(F)ccc2c1Cl [VPC161115],MIC,H. pylori; [16],1.0 µM
same,MIC,E. coli biofilm; [17],5.6 µM
same,MIC,S. epidermidis; [18],5.6 µM
same,MIC,MRSA; [19],2.1 µM
same,MIC,C. jejuni; [20],5.6 µM
same,PFOR inhibition relative to nitazoxanide (=100),[1]; Thiophene analogues table,96%
same,MIC,C. difficile [2]; [21],11.2 µM
same,MIC S. epidermidis Biofilm,S. epidermidis biofilm,0.1 µM
same,MIC,E. coli; [22],89.4 µM
same,Disk Diff (%) C. difficile,C. difficile [3],44%
"O=C(Nc1ncc([N+](=O)[O-])s1)c1cccc(C(F)(F)F)c1 [VPC161183, N-(5-Nitrothiazol-2-yl)-3-(trifluoromethyl)benzamide]",MIC,H. pylori; [23],3.5 µM
same,MIC,E. coli biofilm; [24],31.5 µM
same,MIC,MRSA; [25],3.2 µM
same,MIC,C. jejuni; [26],4.7 µM
same,PFOR inhibition relative to nitazoxanide (=100),[1],87%
same,MIC,C. difficile [2]; [27],12.6 µM
same,MIC (μM) S. epidermidis Biofilm,S. epidermidis biofilm,25.2 µM
same,MIC,E. coli; [28],37.8 µM
same,Disk Diffusion (%) C. difficile,C. difficile [3],95 ± 2%
COc1cccc(C(=O)Nc2ncc([N+](=O)[O-])s2)c1 [VPC161193],MIC,H. pylori; [9],1.3 µM
same,MIC,E. coli biofilm; [10],114.6 µM
same,MIC,S. epidermidis; [11],28.6 µM
same,MIC,MRSA; [12],14.3 µM
same,MIC,C. jejuni; [13],7.2 µM
same,PFOR inhibition relative to nitazoxanide (=100),[1],82%
same,MIC,C. difficile [2]; [14],28.6 µM
same,MIC (μM) S. epidermidis Biofilm,S. epidermidis biofilm,57.3 µM
same,MIC,E. coli; [15],114.6 µM
same,Disk Diffusion (%) C. difficile,C. difficile [3],73 ± 1%
"O=C(Nc1ncc([N+](=O)[O-])s1)c1cccs1 [VPC161195, N-(5-Nitrothiazol-2-yl)thiophene-2-carboxamide]",MIC,"H. pylori; Helicobacter pylori, Thiophene analogues table, read-out: MIC H. pylori",2.9 µM
same,MIC,"E. coli biofilm; Escherichia coli, biofilm, Thiophene analogues table, read-out: MIC E. coli Biofilm",125 µM
same,MIC,"MRSA; Staphylococcus aureus, MRSA, Thiophene analogues table, read-out: MIC MRSA",15.7 µM
same,MIC,"C. jejuni; Campylobacter jejuni, Thiophene analogues table, read-out: MIC C. jejuni",2.9 µM
same,PFOR inhibition relative to nitazoxanide (=100),[1]; Thiophene analogues table,88%
same,MIC,"C. difficile [2]; Clostridioides difficile, Thiophene analogues table, read-out: MIC C. difficile",31.3 µM
same,MIC S. epidermidis Biofilm,S. epidermidis biofilm,62.7 µM
same,MIC,"E. coli; Escherichia coli, planktonic, Thiophene analogues table, read-out: MIC E. coli Plank",125 µM
same,Disk Diff (%) C. difficile,C. difficile [3],97%
O=C(Nc1ncc([N+](=O)[O-])s1)c1cc(Cl)sc1Cl [VPC161199],MIC,H. pylori; [16],1.5 µM
same,MIC,E. coli biofilm; [17],24.7 µM
same,MIC,S. epidermidis; [18],12.3 µM
same,MIC,MRSA; [19],6.2 µM
same,MIC,C. jejuni; [20],2.3 µM
same,PFOR inhibition relative to nitazoxanide (=100),[1]; Thiophene analogues table,48%
same,MIC,C. difficile [2]; [21],12.3 µM
same,MIC S. epidermidis Biofilm,S. epidermidis biofilm,24.7 µM
same,MIC,E. coli; [22],98.7 µM
same,Disk Diff (%) C. difficile,C. difficile [3],89%
"NCCOc1ccccc1C(=O)Nc1ncc([N+](=O)[O-])s1 [VPC161219, 2-(2-Aminoethoxy)-N-(5-nitrothiazol-2-yl)benzamide hydrochloride]",MIC,H. pylori; [23],0.7 µM
same,MIC,E. coli biofilm; [24],46.4 µM
same,MIC,"S. epidermidis; Staphylococcus epidermidis, 24 h, read-out: MIC (μM) S. epidermidis Plank",92.8 µM
same,MIC,[4],16 to 32 µg/mL
same,Fold difference in water solubility versus NTZ,Solubility in water; more soluble than NTZ,15 fold
same,solubility,Solubility in water; water,400 µg/mL
same,MIC,MRSA; [25],92.8 µM
same,Fold decrease in anti-biofilm potency versus NTZ,[5]; S. epidermidis 9142,2 fold
same,IC50,"[5]; Staphylococcus epidermidis, 9142, read-out: IC50 biofilm production",8 µg/mL
same,MIC,C. jejuni; [26],17.4 µM
same,PFOR inhibition relative to nitazoxanide (=100),[1],114%
same,MIC,C. difficile [2]; [27],46.4 µM
same,MIC (μM) S. epidermidis Biofilm,S. epidermidis biofilm,46.4 µM
same,Prevention rates,E. histolytica [6],equivalence
same,MIC,E. coli; [28],69.6 µM
same,"E. histolytica cell counts, compared by MIC",E. histolytica [7],superior to nitazoxanide based on MIC
same,Effect of Zn2+ on the growth inhibitory action (MIC),[8],no effect
same,Disk Diffusion (%) C. difficile,C. difficile [3],88 ± 4%
